# Tested on: normal human fibroblasts
# Assay: Dermo-decontracting effect on dermal equivalent model (collagen matrix inoculated with fibroblasts), spontaneous contraction
# Assay type: cell-based
# Details: for % contraction: test compound 10 μM, dermal equivalent surface area at 0, 4, 8 and 24 hours, with respect to the control
# Description: The principle of this test consists in studying the effect of the test product on a dermal equivalent model composed of a collagen matrix inoculated with normal human fibroblasts.
# These conditions are intended to mimic in vitro the dermal contractile phenomena which occur during facial expressions. This is because, under these conditions, the cells spontaneously express tensile forces which induce retraction of the collagen gel. […] The measurement of this surface area makes it possible to evaluate the relaxing effects of the substances brought into contact beforehand with the dermal equivalent.
# Two series of attached dermal equivalents comprising normal human fibroblasts are prepared: a control series without any treatment and a series treated with the test compound (10 μM). The experiment is repeated three times.
# The dermal equivalents are prepared as described in Asselineau et al., Exp. Cell. Res., 1985, 159, 536-539; Models in Dermatology, 1987, vol. 3, pp. 1-7, in the following proportions:
# The treated dermal equivalent differs from the control dermal equivalent in that 10 μM of the test compound are added thereto.
# The collagen used is type I collagen (commercial solution). It is extracted from calf skin by acid hydrolysis and stored in an acidic medium at +4° C. It polymerizes naturally by reheating to 37° C. and by decreasing the degree of acidity. The collagen is dialysed beforehand against successive baths of water+acetic acid.
# The protocol is as follows: the 1.76×MEM medium is introduced, in the presence of additives (1% glutamine, 1% non-essential amino acids, 1% sodium pyruvate, 1% fungizone and 1% penicillin/streptomycin), the foetal calf serum and the 0.1N NaOH solution, into a 50 ml centrifuge tube stored in crushed ice. The fibroblasts, isolated from human skin explants, are then added at the concentration of 1.5×10^5 cells per 1 ml of culture medium.
# A volume/volume mixture of collagen in acetic acid at 1/1000 is then slowly added, against the wall of the tube, so as to observe the appearance of a whitish cloud.
# The combined product is then carefully mixed and distributed in the wells of a 12-well culture plate (Costar type, reference 3512) in a proportion of 2 ml of mixture per well. The final cell concentration is […], with a final concentration of collagen of 1 mg/ml. The culture plate is then placed in an incubator at 37° C. with 5% CO2.
# Once formed after polymerization of the collagen, the dermal equivalents are left adhered to the culture support for 3 days and then detached from the support so that the contraction can begin. These detached dermal equivalents are taken out of the incubator in order to take images for the purpose of measuring their surface area, this being for each point of the kinetics of contraction (0, 4, 8 and 24 hours). They are immediately placed back in the incubator between each measurement point.
# The evaluation of the spontaneous contraction of the treated (with the test compound) and control (without test compound) dermal equivalents is carried out by measuring their surface area at the different times mentioned after the beginning of the spontaneous contraction.
# For this, a digital image is acquired for each treated or untreated dermal equivalent by means of a camera (CCD camera-Iris Sony DXC-107P) and the surface area is subsequently calculated on each image by means of an image analysis system (Zeiss Axiovision 3.0). […]
Compound,% contraction,"reduce the contraction of the fibroblasts, on average over the duration of the experiment, with respect to the control (tested at 10 μM)"
"Nc1ncnc2c1ncn2[C@@H]1O[C@H](CO)[C@@H](O)[C@H]1O [Adenosine, reference compound]",−15%,15%
"CCOC[C@H]1O[C@@H](n2cnc3c(N)ncnc32)[C@@H]2OC(C)(C)O[C@@H]21 [Compound D, 2′,3′-isopropylidene-5′-ethyladenosine]",−21%,
"CCCCCCCCOC[C@H]1O[C@@H](n2cnc3c(N)ncnc32)[C@@H]2OC(C)(C)O[C@@H]21 [Compound E, 2′,3′-isopropylidene-5′-octyladenosine]",−26%,
"CC(=O)OC[C@H]1O[C@@H](n2cnc3c(N)ncnc32)[C@@H]2OC(C)(C)O[C@@H]21 [Compound G, 2′,3′-isopropylidene-5′-acetyladenosine]",−30%,
